# Test results from ChEMBL document CHEMBL3885861, “Open TG-GATES”.
# Species: Rattus norvegicus
# Test: Open TG-GATES - Regimen: Single
# Format: toxicity, organism-based, Sprague-Dawley
# Parameters: regimen Single, gender Male, age 6 weeks
# Details: in vivo, po, route gavage; for gamma-GTP / ALP / ALT / AST / BUN / CRE / Ca / Cl / DBIL / GLC / IP / K / LDH / Na / PL / RALB / TBIL / TC / TG / TP: tissue Plasma; for APTT / Bas / Eos / Fbg / Hb / Ht / Lym / MCH / MCHC / MCV / Mono / Neu / PT / Plat / RBC / Ret: tissue Blood; for KIDNEY_L / KIDNEY_R / KIDNEY_TOTAL: tissue Kidney; for LIVER: tissue Liver
# [1] = 300 mg/kg, 3 h, dose level Middle
# [2] = 300 mg/kg, 6 h, dose level Middle
# [3] = 300 mg/kg, 9 h, dose level Middle
# [4] = 300 mg/kg, 24 h, dose level Middle
structure (smiles),measurement,setting,value
COc1ccc2[nH]c([S+]([O-])Cc3ncc(C)c(OC)c3C)nc2c1 (stereo not drawn) [OMEPRAZOLE],gamma-GTP,"100 mg/kg, 24 h, dose level Low",1.2 IU/L
same,TERMINAL_BW,[1],223.6 g
same,APTT,[1],18.7 s
same,Bas,[1],0%
same,Eos,[1],1%
same,Fbg,[1],216.4 mg/dL
same,Hb,[1],12.4 g/dL
same,Ht,[1],36.4%
same,Lym,[1],73.2%
same,MCH,[1],21.2 pg
same,MCHC,[1],33.9%
same,MCV,[1],62.3 fL
same,Mono,[1],3.4%
same,Neu,[1],22.2%
same,PT,[1],12.7 s
same,Plat,[1],128.9 x10_4/uL
same,RBC,[1],584.6 x10_4/ul
same,Ret,[1],8.2%
same,KIDNEY_L,[1],1 g
same,KIDNEY_R,[1],1 g
same,KIDNEY_TOTAL,[1],1.9 g
same,LIVER,[1],9.8 g
same,ALP,[1],904.2 IU/L
same,ALT,[1],31.8 IU/L
same,AST,[1],67.2 IU/L
same,BUN,[1],10.2 mg/dL
same,CRE,[1],0.4 mg/dL
same,Ca,[1],10.6 mg/dL
same,Cl,[1],100.6 meq/L
same,DBIL,[1],0.064 mg/dL
same,GLC,[1],194.8 mg/dL
same,IP,[1],9.4 mg/dL
same,K,[1],3.9 meq/L
same,LDH,[1],202 IU/L
same,Na,[1],139.6 meq/L
same,PL,[1],146.4 mg/dL
same,RALB,[1],3.3 g/dL
same,TBIL,[1],0.1 mg/dL
same,TC,[1],80.2 mg/dL
same,TG,[1],70.2 mg/dL
same,TP,[1],5.4 g/dL
same,gamma-GTP,[1],1.6 IU/L
same,TERMINAL_BW,[2],217.5 g
same,APTT,[2],19 s
same,Bas,[2],0%
same,Eos,[2],1%
same,Fbg,[2],216.4 mg/dL
same,Hb,[2],13.1 g/dL
same,Ht,[2],38.3%
same,Lym,[2],74.4%
same,MCH,[2],21.2 pg
same,MCHC,[2],34.3%
same,MCV,[2],61.8 fL
same,Mono,[2],3.8%
same,Neu,[2],20.6%
same,PT,[2],12.9 s
same,Plat,[2],124 x10_4/uL
same,RBC,[2],620.6 x10_4/ul
same,Ret,[2],6.5%
same,KIDNEY_L,[2],1 g
same,KIDNEY_R,[2],1 g
same,KIDNEY_TOTAL,[2],2 g
same,LIVER,[2],9.4 g
same,ALP,[2],913.6 IU/L
same,AST,[2],66 IU/L
same,BUN,[2],10 mg/dL
same,CRE,[2],0.4 mg/dL
same,Ca,[2],10.3 mg/dL
same,Cl,[2],100.8 meq/L
same,DBIL,[2],0.066 mg/dL
same,GLC,[2],192 mg/dL
same,IP,[2],9.7 mg/dL
same,K,[2],4.1 meq/L
same,LDH,[2],171.2 IU/L
same,Na,[2],140 meq/L
same,PL,[2],145.6 mg/dL
same,RALB,[2],3.3 g/dL
same,TBIL,[2],0.1 mg/dL
same,TC,[2],72.8 mg/dL
same,TG,[2],74.4 mg/dL
same,TP,[2],5.5 g/dL
same,gamma-GTP,[2],1.4 IU/L
same,TERMINAL_BW,[3],218.4 g
same,APTT,[3],22.1 s
same,Bas,[3],0%
same,Eos,[3],1%
same,Fbg,[3],223.8 mg/dL
same,Hb,[3],12.7 g/dL
same,Ht,[3],37%
same,Lym,[3],76.6%
same,MCH,[3],21.4 pg
same,MCHC,[3],34.3%
same,MCV,[3],62.4 fL
same,Mono,[3],3.2%
same,Neu,[3],18.4%
same,PT,[3],12.9 s
same,Plat,[3],117.1 x10_4/uL
same,RBC,[3],593.4 x10_4/ul
same,Ret,[3],6.7%
same,KIDNEY_L,[3],0.9 g
same,KIDNEY_R,[3],0.9 g
same,KIDNEY_TOTAL,[3],1.9 g
same,LIVER,[3],9.1 g
same,ALP,[3],761.6 IU/L
same,ALT,[3],27.6 IU/L
same,AST,[3],62.8 IU/L
same,BUN,[3],8.2 mg/dL
same,CRE,[3],0.3 mg/dL
same,Ca,[3],10.2 mg/dL
same,Cl,[3],101.4 meq/L
same,DBIL,[3],0.068 mg/dL
same,GLC,[3],195.4 mg/dL
same,IP,[3],9.5 mg/dL
same,K,[3],3.9 meq/L
same,LDH,[3],175.8 IU/L
same,Na,[3],140.8 meq/L
same,PL,[3],133.2 mg/dL
same,RALB,[3],3.4 g/dL
same,TBIL,[3],0.1 mg/dL
same,TC,[3],70.4 mg/dL
same,TG,[3],74 mg/dL
same,TP,[3],5.4 g/dL
same,gamma-GTP,[3],0.8 IU/L
same,TERMINAL_BW,[4],229.5 g
same,APTT,[4],20.6 s
same,Bas,[4],0%
same,Eos,[4],1%
same,Fbg,[4],230.2 mg/dL
same,Hb,[4],13.5 g/dL
same,Ht,[4],39.6%
same,Lym,[4],81.2%
same,MCH,[4],20.6 pg
same,MCHC,[4],34.1%
same,MCV,[4],60.4 fL
same,Mono,[4],3%
same,Neu,[4],14.6%
same,PT,[4],12.7 s
same,Plat,[4],129 x10_4/uL
same,RBC,[4],654.6 x10_4/ul
same,Ret,[4],6.1%
same,KIDNEY_L,[4],1 g
same,KIDNEY_R,[4],1 g
same,KIDNEY_TOTAL,[4],2 g
same,LIVER,[4],11.8 g
same,ALP,[4],1087 IU/L
same,ALT,[4],35 IU/L
same,AST,[4],65.8 IU/L
same,BUN,[4],15.4 mg/dL
same,CRE,[4],0.4 mg/dL
same,Ca,[4],10.3 mg/dL
same,Cl,[4],101 meq/L
same,DBIL,[4],0.1 mg/dL
same,GLC,[4],205.2 mg/dL
same,IP,[4],9.4 mg/dL
same,K,[4],3.8 meq/L
same,LDH,[4],207 IU/L
same,Na,[4],140.8 meq/L
same,PL,[4],146.4 mg/dL
same,RALB,[4],3.3 g/dL
same,TBIL,[4],0.2 mg/dL
same,TC,[4],72 mg/dL
same,TG,[4],139.4 mg/dL
same,TP,[4],5.5 g/dL
